The numbers were not newly measured in patent publication US7604823B2, “Synergistic HIV/AIDS and/or immune disease phyto-nutraceutical composition” (priority 2006, dated 2009), which cites them from elsewhere.

“Also recorded” adds a separate entry of the source.

One series deals with HIV-1 PR (Human immunodeficiency virus type 1 group M subtype B, UniProt P04585).
In series [1] the test system is HIV-1-infected cells (CEM/LAV-1).
The test system of series [2] is HIV-1 LTR-directed gene expression. As to conditions: concentrations that have minor effects on cells.
For series [3], the system named is cells either acutely or chronically infected with HIV-1. As to conditions: cells acutely or chronically infected with HIV-1.
In series [4] the test system is HIV-1.
Series [5] relates to HIV. Conditions: after administration, no antiretroviral medications.
For series [6], the system named is HIV.
The test system of series [7] is bacterial resistance mechanism (multidrug pump). As to conditions: in the presence of 5′-MHC.
Series [8] relates to HIV-1. Conditions: prolonged period.
In series [9] the test system is HIV. Conditions: human, in vivo.
Series [10] deals with HIV-1 reverse transcriptase (Human immunodeficiency virus type 1 group M subtype B, UniProt P04585).

Turning to `C/C(=C\CC[C@@H](C)[C@H]1CC(=O)[C@@]2(C)C3=C(C(=O)C[C@]12C)[C@@]1(C)CC[C@H](O)C(C)(C)[C@@H]1C[C@@H]3O)C(=O)O` [Ganoderic acid beta], the “inhibition of HIV-1 protease” value at HIV-1 PR is reported as “significant”. Regarding `C=CCSSCC=C` [Allyl disulfide], the “cell proliferation of HIV-1-infected cells” value in series [1] is given as “strongly depressed”. For `CC1(C)CCC2=C(O1)c1ccccc1C(=O)C2=O` [beta-lapachone], the “inhibition of HIV-1 LTR-directed gene expression” value in series [2] was “potent and selective inhibitor”. Also, in series [3], the p24 antigen production entry was “inhibited”. In the case of `CC(CC(=O)C[C@@H](C)[C@H]1C[C@H](O)[C@@]2(C)C3=C(C(=O)C[C@]12C)[C@@]1(C)CCC(=O)C(C)(C)[C@@H]1CC3)C(=O)O` (stereo partly drawn) [ganolucidic acid A], the “inhibition of HIV-1 protease” value on HIV-1 PR is on record as “significant”.

On to `C[C@H](CC[C@H](O)[C@](C)(O)CO)[C@H]1CC[C@@]2(C)C3=CC[C@H]4C(C)(C)C(=O)CC[C@]4(C)C3=CC[C@]12C` [ganodermanontriol], for which the “activity as anti-HIV-1 agents” value in the series on HIV-1 [4] is “active”. The “inhibition of HIV-1 protease” value on HIV-1 PR is listed as “significant”.

Take `C[C@H](CC(=O)C[C@@H](C)[C@H]1CC(=O)[C@@]2(C)C3=C(C(=O)C[C@]12C)[C@@]1(C)CCC(=O)C(C)(C)[C@@H]1C[C@@H]3O)C(=O)O` [ganoderic acid C1]: on HIV-1 PR, the “inhibition of HIV-1 protease” value is listed as “moderately active”.

Regarding `C=C1CC[C@@H]2[C@](C)(CO)[C@H](O)CC[C@@]2(C)[C@@H]1C/C=C1/C(=O)OC[C@H]1O` [andrographolide], in the series on HIV [5], the “mean CD4(+) lymphocyte level of HIV subjects” value is given as “significant rise”. Consider lentinan, for which the tolerability result in the series with HIV [6] (HIV-positive patients) is listed as “good tolerability”. Also, in the series with HIV [6] (human, in vivo), the CD4 cells entry is “trend toward increases”. For `COc1cc([C@H]2Oc3cc(-c4cc(=O)c5c(O)cc(O)cc5o4)cc(OC)c3O[C@@H]2CO)ccc1O` (racemic) [5′-MHC, 5′-methoxyhydnocarpin], the “accumulation of berberine in the cells” value in series [7] is reported as “strong increase”. On to `C[C@H](CC[C@H](O)C(C)(O)CO)[C@H]1CC[C@@]2(C)C3=CC[C@H]4C(C)(C)[C@@H](O)CC[C@]4(C)C3=CC[C@]12C` (stereo partly drawn) [ganoderiol A], for which, on HIV-1 PR, the “inhibition of HIV-1 protease” value is reported as “moderately active”. `C=CCO` [allyl alcohol]: in series [1], the “cell proliferation of HIV-1-infected cells” value is given as “strongly depressed; also recorded: completely inhibited”. `CC(=O)OC1C(=O)C2=C(C(=O)CC3C(C)(C)[C@@H](O)CC[C@]23C)[C@]2(C)[C@H](O)C[C@H]([C@H](C)CC(=O)CC(C)C(=O)O)[C@@]12C` (stereo partly drawn) [ganoderic acid alpha]: the “inhibition of HIV-1 protease” value at HIV-1 PR is “moderately active”. With `Cc1cn([C@H]2C[C@H](N=[N+]=[N-])[C@@H](CO)O2)c(=O)[nH]c1=O` [ZDV, zidovudine], the “CD4+ T cell counts” value with HIV-1 [8] was “decreased”. Turning to `C[C@H](CC[C@H](O)C(C)(C)O)[C@H]1CC[C@@]2(C)C3=CC[C@H]4C(C)(C)C(=O)CC[C@]4(C)C3=CC[C@]12C` [ganodermanondiol], the “inhibition of HIV-1 protease” value at HIV-1 PR is recorded as “significant”. In the case of `O=c1[nH]cnc2c1ncn2[C@H]1CC[C@@H](CO)O1` [ddI, didanosine], in the series on HIV [9], the “mean change of CD4 cells/mm3” value was “decrease”.

Take `COc1ccc2cc3[n+](cc2c1OC)CCc1cc2c(cc1-3)OCO2` [Berberine]: the “inhibition of HIV-1 reverse transcriptase” value in series [10] is listed as “inhibits”. For `C[C@H](CCC=C(CO)CO)[C@H]1CC[C@@]2(C)C3=CC[C@H]4C(C)(C)C(=O)CC[C@]4(C)C3=CC[C@]12C` [Ganoderiol F], in the series with HIV-1 [4], the “activity as anti-HIV-1 agents” value was “active”. With `C[C@H](CCC=C(CO)CO)[C@H]1C[C@H](O)[C@@]2(C)C3=CC[C@H]4C(C)(C)C(=O)CC[C@]4(C)C3=CC[C@]12C` [ganoderiol B], at HIV-1 PR, the “inhibition of HIV-1 protease” value is “moderately active”. As for `CC(=O)O[C@@H]1C(=O)C2=C(C(=O)C[C@H]3C(C)(C)[C@@H](O)CC[C@]23C)[C@]2(C)C(=O)C[C@H]([C@H](C)CC(=O)CC(C)C(=O)O)[C@@]12C` (stereo partly drawn) [ganoderic acid H], on HIV-1 PR, the “inhibition of HIV-1 protease” value is given as “moderately active”.

In the case of `CO[C@@H]1C=C2[C@@H]3CC[C@H]([C@H](C)C=C[C@H](C)C(C)C)[C@@]3(C)CC[C@@H]2[C@@]2(C)CC[C@H](O)C[C@]12O` [3 beta-5 alpha-dihydroxy-6beta-methoxyergosta-7,22-diene], the “inhibition of HIV-1 protease” value at HIV-1 PR is recorded as “moderately active”. With `CC(CC(=O)C[C@@H](C)[C@H]1CC(=O)[C@@]2(C)C3=C(C(=O)C[C@]12C)[C@@]1(C)CC[C@H](O)C(C)(C)[C@@H]1C[C@@H]3O)C(=O)O` (stereo partly drawn) [ganoderic acid B], the “inhibition of HIV-1 protease” value at HIV-1 PR was “moderately active”.
